Laboratory results taken from patent publication US20230399312A1, “SUBSTITUTED PYRIMIDINES AND METHODS OF USE” (THERAVANCE BIOPHARMA R&D IP, LLC, priority 2020, published 2023).

How the values were obtained:
[1] = target: T1, recombinant human ALK5 (TGF-βR1) protein (Homo sapiens, UniProt P36897); experiment: Biochemical ALK5 (TGF-βR1) assay to measure pKi (LANCE Ultra ULight kinase assay); settings: apparent pKi, converted from pIC50 by Cheng-Prusoff
T1 construct: purchased Life Technologies PR9075A
T1 sequence (P36897 34-503): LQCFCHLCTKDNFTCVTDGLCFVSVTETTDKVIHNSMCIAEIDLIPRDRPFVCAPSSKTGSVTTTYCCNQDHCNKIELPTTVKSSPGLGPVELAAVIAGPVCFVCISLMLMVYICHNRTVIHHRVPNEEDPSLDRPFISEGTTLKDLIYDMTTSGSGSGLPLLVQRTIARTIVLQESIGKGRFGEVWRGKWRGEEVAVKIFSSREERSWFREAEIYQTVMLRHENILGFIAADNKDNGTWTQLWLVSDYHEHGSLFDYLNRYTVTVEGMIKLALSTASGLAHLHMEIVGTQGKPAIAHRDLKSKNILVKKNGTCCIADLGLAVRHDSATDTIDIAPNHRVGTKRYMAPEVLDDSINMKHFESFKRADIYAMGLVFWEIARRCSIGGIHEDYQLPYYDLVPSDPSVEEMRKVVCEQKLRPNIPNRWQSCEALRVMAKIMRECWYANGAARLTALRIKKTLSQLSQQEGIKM
Method in brief: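 Cmpd + enzyme, 60 min RT; ATP from 125 μM (5×) stock, 60 min 37 °C; stop 12 mM EDTA/Eu anti-pThr1342 Topo2α Ab (pH 7.0 buffer); TR-FRET 665 nm. DMSO = max, SD-208 = min signal. 4-PL pIC50 → pKi (Cheng-Prusoff).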

[2] = system: TGF-β-stimulated SMAD3 phosphorylation in BEAS-2B cells; experiment: Cellular ALK5 potency assay, inhibition of TGF-β stimulated pSMAD3 formation in BEAS-2B cells; assay type: cell-based; settings: Homo sapiens, pSMAD3, TGF-β 10 ng/mL, read-out: BEAS2B pIC50 (converted)
Method in brief: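 Reported as pIC50, potency reflects dose-dependent loss of AlphaLISA pSMAD3 signal versus TGF-β-stimulated, compound-free BEAS-2B cells. Compound was applied for 1 h in BSA-containing HBSS buffer before a 30-min challenge with TGF-β at 10 ng/mL final.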

Ki [1] | Structure (SMILES) | IC50 [2]
0.0398 to 0.316 nM | Cc1cccc(-c2nccc(Nc3ccnc(Nc4cc(C(=O)N5CCNCC5)cs4)n3)n2)n1 [Compound 389, [5-[[4-[[2-(6-methyl-2-pyridyl)pyrimidin-4-yl]amino]pyrimidin-2-yl]amino]-3-thienyl]-piperazin-1-yl-methanone] | 25.1 to 158 nM
≤ 0.0316 nM | Cc1cccc(-c2nccc(Nc3ccnc(Nc4ccc(CN5CCC(CO)CC5)cc4)n3)n2)n1 [Compound 474, [1-[[4-[[4-[[2-(6-methyl-2-pyridyl)pyrimidin-4-yl]amino]pyrimidin-2-yl]amino]phenyl]methyl]-4-piperidyl]methanol] | 25.1 to 158 nM
≤ 0.0316 nM | Cc1cccc(-c2nccc(Nc3ccnc(Nc4csc(C(=O)N5CCNCC5)c4)n3)n2)n1 [Compound 188, [4-[[4-[[2-(6-methyl-2-pyridyl)pyrimidin-4-yl]amino]pyrimidin-2-yl]amino]-2-thienyl]-piperazin-1-yl-methanone] | 25.1 to 158 nM
0.398 to 3.16 nM | Cc1cccc(-c2nccc(Nc3ccnc(Nc4ccc(S(=O)(=O)N5CCN(C6CC6)CC5)cc4)n3)n2)n1 [Compound 527, N2-[4-(4-cyclopropylpiperazin-1-yl)sulfonylphenyl]-N4-[2-(6-methyl-2-pyridyl)pyrimidin-4-yl]pyrimidine-2,4-diamine] | 25.1 to 158 nM
0.398 to 3.16 nM | Cc1cccc(-c2nccc(Nc3ccnc(Nc4cccc(C(=O)O)c4)n3)n2)n1 [Compound 423, 3-[[4-[[2-(6-methyl-2-pyridyl)pyrimidin-4-yl]amino]pyrimidin-2-yl]amino]benzoic acid] | 1580 to 10000 nM
0.398 to 3.16 nM | Cc1cccc(-c2nccc(Nc3ccnc(Nc4nc(CN5CCNCC5)cs4)n3)n2)n1 [Compound 287, N4-(2-(6-methylpyridin-2-yl)pyrimidin-4-yl)-N2-(4-(piperazin-1-ylmethyl)thiazol-2-yl)pyrimidine-2,4-diamine] | 25.1 to 158 nM
0.0398 to 0.316 nM | Cc1cccc(-c2nccc(Nc3ccnc(Nc4ccc(CN5CC6(CNC6)C5)cc4)n3)n2)n1 [Compound 163, N2-[4-(2,6-diazaspiro[3.3]heptan-2-ylmethyl)phenyl]-N4-[2-(6-methyl-2-pyridyl)pyrimidin-4-yl]pyrimidine-2,4-diamine] | 25.1 to 158 nM
0.0398 to 0.316 nM | Cc1cccc(-c2nccc(Nc3ccnc(Nc4ccc(CN5C[C@@H]6C[C@H]5CN6)cc4)n3)n2)n1 [Compound 375, N2-[4-[[(1S,4S)-2,5-diazabicyclo[2.2.1]heptan-2-yl]methyl]phenyl]-N4-[2-(6-methyl-2-pyridyl)pyrimidin-4-yl]pyrimidine-2,4-diamine] | 25.1 to 158 nM
0.0398 to 0.316 nM | COC(=O)CC1CN(c2ccc(Nc3nccc(Nc4ccnc(-c5cccc(C)n5)n4)n3)cc2)CCN1 (stereo not shown) [Compound 491, methyl 2-[4-[4-[[4-[[2-(6-methyl-2-pyridyl)pyrimidin-4-yl]amino]pyrimidin-2-yl]amino]phenyl]piperazin-2-yl]acetate] | 25.1 to 158 nM
0.398 to 3.16 nM | Cc1cccc(-c2nccc(Nc3ccnc(Nc4cccc(C(=O)O[C@@H]5CCNC5)c4)n3)n2)n1 [Compound 459, [(3R)-pyrrolidin-3-yl] 3-[[4-[[2-(6-methyl-2-pyridyl)pyrimidin-4-yl]amino]pyrimidin-2-yl]amino]benzoate] | 25.1 to 158 nM
0.398 to 3.16 nM | Cc1cccc(-c2nccc(Nc3ccnc(Nc4ccc(N5CCC(CNCC(C)C)CC5)cc4)n3)n2)n1 [Compound 525, N2-[4-[4-[(isobutylamino)methyl]-1-piperidyl]phenyl]-N4-[2-(6-methyl-2-pyridyl)pyrimidin-4-yl]pyrimidine-2,4-diamine] | 25.1 to 158 nM
0.0398 to 0.316 nM | Cc1cccc(-c2nccc(Nc3ccnc(Nc4ccc(N5CCC(C(=O)O[C@@H]6CCNC6)CC5)cc4)n3)n2)n1 [Compound 337, [(3R)-pyrrolidin-3-yl] 1-[4-[[4-[[2-(6-methyl-2-pyridyl)pyrimidin-4-yl]amino]pyrimidin-2-yl]amino]phenyl]piperidine-4-carboxylate] | 25.1 to 158 nM
3.98 to 31.6 nM | Cc1cccc(-c2nccc(Nc3ccnc(Nc4cc(C(=O)OC5CCNCC5)ccn4)n3)n2)n1 [Compound 633, 4-piperidyl 2-[[4-[[2-(6-methyl-2-pyridyl)pyrimidin-4-yl]amino]pyrimidin-2-yl]amino]pyridine-4-carboxylate] | 200 to 1260 nM
0.0398 to 0.316 nM | Cc1cccc(-c2nccc(Nc3ccnc(Nc4ccc(N5CCN(C(=O)CSC6CCOC6=O)CC5)cc4)n3)n2)n1 (stereo not shown) [Compound 149, 3-[2-[4-[4-[[4-[[2-(6-methyl-2-pyridyl)pyrimidin-4-yl]amino]pyrimidin-2-yl]amino]phenyl]piperazin-1-yl]-2-oxo-ethyl] sulfanyltetrahydrofuran-2-one] | 25.1 to 158 nM
0.0398 to 0.316 nM | Cc1cccc(-c2nccc(Nc3ccnc(Nc4ccc(C)c(CN5CCN(C)CC5)c4)n3)n2)n1 [Compound 311, N2-[4-methyl-3-[(4-methylpiperazin-1-yl)methyl]phenyl]-N4-[2-(6-methyl-2-pyridyl)pyrimidin-4-yl]pyrimidine-2,4-diamine] | 25.1 to 158 nM
0.0398 to 0.316 nM | CCN1CCN(S(=O)(=O)c2ccc(Nc3nccc(Nc4ccnc(-c5cccc(C)n5)n4)n3)cc2)CC1 [Compound 38, N2-[4-(4-ethylpiperazin-1-yl)sulfonylphenyl]-N4-[2-(6-methyl-2-pyridyl)pyrimidin-4-yl]pyrimidine-2,4-diamine] | 25.1 to 158 nM
0.0398 to 0.316 nM | Cc1cccc(-c2nccc(Nc3ccnc(Nc4ccc(C)c(CN5CCSCC5)c4)n3)n2)n1 [Compound 361, N4-[2-(6-methyl-2-pyridyl)pyrimidin-4-yl]-N2-[4-methyl-3-(thiomorpholinomethyl)phenyl] pyrimidine-2,4-diamine] | 25.1 to 158 nM
0.0398 to 0.316 nM | Cc1cccc(-c2nccc(Nc3ccnc(Nc4nc(C(=O)NC5CNC5)cs4)n3)n2)n1 [Compound 44, N-(azetidin-3-yl)-2-[[4-[[2-(6-methyl-2-pyridyl)pyrimidin-4-yl]amino]pyrimidin-2-yl]amino]thiazole-4-carboxamide] | 25.1 to 158 nM
0.0398 to 0.316 nM | CNCCn1cc(-c2ccc(Nc3nccc(Nc4ccnc(-c5cccc(C)n5)n4)n3)cc2)cn1 [Compound 347, N2-(4-(1-(2-(methylamino)ethyl)-1H-pyrazol-4-yl)phenyl)-N4-(2-(6-methylpyridin-2-yl)pyrimidin-4-yl)pyrimidine-2,4-diamine] | 25.1 to 158 nM
0.0398 to 0.316 nM | Cc1cccc(-c2nccc(Nc3ccnc(Nc4ccc(N5CCCC(C(=O)OC6CCNCC6)C5)cc4)n3)n2)n1 (stereo not shown) [Compound 215, 4-piperidyl 1-[4-[[4-[[2-(6-methyl-2-pyridyl)pyrimidin-4-yl]amino]pyrimidin-2-yl]amino]phenyl]piperidine-3-carboxylate] | 200 to 1260 nM
0.0398 to 0.316 nM | Cc1cccc(-c2nccc(Nc3ccnc(Nc4cncc(CN5CC(C(=O)O)C5)c4)n3)n2)n1 [Compound 603, 1-[[5-[[4-[[2-(6-methyl-2-pyridyl)pyrimidin-4-yl]amino]pyrimidin-2-yl]amino]-3-pyridyl]methyl]azetidine-3-carboxylic acid] | 1580 to 10000 nM
0.0398 to 0.316 nM | CNC(=O)[C@@H]1CN(c2ccc(Nc3nccc(Nc4ccnc(-c5cccc(C)n5)n4)n3)cc2)CCN1 [Compound 367, (2S)-N-methyl-4-[4-[[4-[[2-(6-methyl-2-pyridyl)pyrimidin-4-yl]amino]pyrimidin-2-yl]amino]phenyl]piperazine-2-carboxamide] | 25.1 to 158 nM
0.398 to 3.16 nM | Cc1cccc(-c2nccc(Nc3ccnc(Nc4ccc(CO)cc4)n3)n2)n1 [Compound 388, [4-[[4-[[2-(6-methyl-2-pyridyl)pyrimidin-4-yl]amino]pyrimidin-2-yl]amino]phenyl]methanol] | ≤ 20 nM
0.0398 to 0.316 nM | Cc1cccc(-c2nccc(Nc3ccnc(Nc4ccc(NC(=O)C5CCN(C)CC5)cc4)n3)n2)n1 [Compound 150, 1-methyl-N-[4-[[4-[[2-(6-methyl-2-pyridyl)pyrimidin-4-yl]amino]pyrimidin-2-yl]amino]phenyl]piperidine-4-carboxamide] | 25.1 to 158 nM
0.398 to 3.16 nM | Cc1cccc(-c2nccc(Nc3ccnc(Nc4cccc(C(=O)O[C@H]5CCNC5)c4)n3)n2)n1 [Compound 257, [(3S)-pyrrolidin-3-yl] 3-[[4-[[2-(6-methyl-2-pyridyl)pyrimidin-4-yl]amino]pyrimidin-2-yl]amino]benzoate] | 25.1 to 158 nM
0.0398 to 0.316 nM | Cc1cccc(-c2nccc(Nc3ccnc(Nc4ccc(CN5C[C@H]6C[C@@H]5CN6)cc4)n3)n2)n1 [Compound 279, N2-[4-[[(1R,4R)-2,5-diazabicyclo[2.2.1]heptan-2-yl]methyl]phenyl]-N4-[2-(6-methyl-2-pyridyl)pyrimidin-4-yl]pyrimidine-2,4-diamine] | 25.1 to 158 nM
